Source: ChEMBL document CHEMBL1156415, “Selective inhibition of porcine endogenous retrovirus replication in human cells by acyclic nucleoside phosphonates” (Antimicrob Agents Chemother, 2007)

How the values were obtained:
[1] = system: Porcine endogenous retrovirus; test: Antiviral activity against PERV infected in human 293T cells assessed as inhibition of proximal DNA synthesis after 24 hrs by RT-PCR; assay type: functional, organism-based; details: Porcine type-C oncovirus, HEK-293T
[2] = Cytotoxicity against human 293T cells assessed as inhibition of cell proliferation by tetrazolium dye method; assay type: cell-based, HEK-293T
[3] = Inhibition of PERV reverse transcriptase from pig PK15 cells; assay type: cell-based, Porcine endogenous retrovirus
[4] = Inhibition of PERV reverse transcriptase from Kagoshima pig DRK4 cells; set-up: species or system Porcine endogenous retrovirus
[5] = Inhibition of PERV reverse transcriptase from Kagoshima pig KK5 cells; set-up: species or system Porcine endogenous retrovirus
[6] = biological target: Human immunodeficiency virus type 1 reverse transcriptase (Human immunodeficiency virus 1, UniProt Q72547); test: Inhibition of HIV1 recombinant reverse transcriptase

Row | EC50 [1] [nM] | IC50 [3] [nM] | IC50 [4] [nM] | IC50 [5] [nM] | IC50 [6] [nM] | SMILES | CC50 [2] [nM]
1 | 2800 |  |  |  |  | C[C@H](Cn1cnc2c(N)ncnc21)OCP(=O)(O)O [TENOFOVIR ANHYDROUS] | > 100000
2 |  | 450 | 170 | 150 | 36 | Cc1cn([C@H]2C=C[C@@H](COP(=O)(O)OP(=O)(O)OP(=O)(O)O)O2)c(=O)[nH]c1=O [STAVUDINE TRIPHOSPHATE] | 
3 | 7800 |  |  |  |  | Cc1cn([C@H]2C=C[C@@H](CO)O2)c(=O)[nH]c1=O [STAVUDINE] | > 100000
4 | > 100000 |  |  |  |  | Nc1ccn([C@@H]2CS[C@H](CO)O2)c(=O)n1 [LAMIVUDINE] | > 100000
5 | > 100000 |  |  |  |  | Cc1cn([C@H]2C[C@H](O)[C@](CO)(N=[N+]=[N-])O2)c(=O)[nH]c1=O | > 100000
6 | > 100000 |  |  |  |  | C#C[C@@]1(CO)C=C[C@H](n2cc(C)c(=O)[nH]c2=O)O1 [CENSAVUDINE] | > 100000
7 |  | 59 | 20 | 19 | 54 | Cc1cn([C@H]2C[C@H](N=[N+]=[N-])[C@@H](COP(=O)(O)OP(=O)(O)OP(=O)(O)O)O2)c(=O)[nH]c1=O [ZIDOVUDINE TRIPHOSPHATE] | 
8 | 23 |  |  |  |  | Cc1cn([C@H]2C[C@H](N=[N+]=[N-])[C@@H](CO)O2)c(=O)[nH]c1=O [ZIDOVUDINE] | > 10000
9 | 280 |  |  |  |  | C[C@H](Cn1cnc2c(N)nc(N)nc21)OCP(=O)(O)O | > 100000
10 | 180 |  |  |  |  | Nc1cc(OCCOCP(=O)(O)O)nc(N)n1 | > 100000

Row | SMILES | EC50 [1] [nM] | IC50 [3] [nM] | IC50 [4] [nM] | IC50 [5] [nM] | IC50 [6] [nM] | CC50 [2] [nM]
11 | Cc1ccnc2c1NC(=O)c1cccnc1N2C1CC1 [NEVIRAPINE] | > 100000 |  |  |  |  | > 100000
12 | Nc1ncnc2c1ncn2CCOCP(=O)(O)O [ADEFOVIR] | 3400 |  |  |  |  | > 100000
